Compound: CC(C)C[C@@H](C(=O)N[C@H](C(=O)OC1CCCC1)c1ccccc1)[C@H](O)C(=O)NO [Tosedostat] + CC(=O)c1c(C)c2cnc(Nc3ccc(N4CCNCC4)cn3)nc2n(C2CCCC2)c1=O [Palbociclib] (partner 0.5 µM)
Experiment: relative viability (nuclei count vs DMSO), 5 days (fraction); higher = more cells survive
Conditions: first compound 0.6325 µM
Method in brief: (§1)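 After 5 days of treatment, lung cancer cells in 1536-well plates were fixed and stained in a single step (final 0.05% Triton X-100, 1% formaldehyde, 1 ug/ml Hoechst) and their nuclei counted on 4× images. Treatment had been applied by pin tool the day after seeding as one drug alone or as a fixed anchor-drug dose with five library-drug doses (not always all listed) in √10 steps. Relative viability is the nuclei count of treated wells divided by that of vehicle wells, and values are medians of duplicate plates.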

| Cell Line | relative viability |
| --- | --- |
| NCI-H1734 | 0.313 |
| EPLC-272H | 0.303 |
| NCI-H3122 | 0.22 |
| NCI-H2009 | 0.274 |
| NCI-H520 | 0.303 |
| NCI-H1651 | 0.553 |
| NCI-H1993 | 0.67 |
| NCI-H2228 | 0.473 |
| HCC-15 | 0.708 |
| NCI-H1793 | 0.293 |
| EKVX | 0.396 |
| LC-2-ad | 0.446 |
| NCI-H1666 | 0.601 |
| NCI-H1944 | 0.32 |
| NCI-H2085 | 0.512 |
| NCI-H1650 | 0.417 |
| ABC-1 | 0.576 |
| NCI-H358 | 0.137 |
| PC-3 [JPC-3] | 0.493 |
| LOU-NH91 | 0.559 |

Same assay, conditions: first compound 2 µM

| Cell Line | relative viability |
| --- | --- |
| NCI-H322M | 0.455 |
| NCI-H1437 | 0.38 |
| PC-14 | 0.444 |
| CAL-12T | 0.397 |
| NCI-H1734 | 0.265 |
| EPLC-272H | 0.248 |
| NCI-H3122 | 0.249 |
| NCI-H2009 | 0.181 |
| NCI-H520 | 0.315 |
| NCI-H1651 | 0.535 |
| NCI-H1993 | 0.562 |
| NCI-H2228 | 0.426 |
| HCC-15 | 0.653 |
| NCI-H1793 | 0.375 |
| EKVX | 0.389 |
| LC-2-ad | 0.529 |
| NCI-H1666 | 0.657 |
| NCI-H1944 | 0.377 |
| NCI-H2085 | 0.561 |
| NCI-H1650 | 0.504 |
| ABC-1 | 0.531 |
| NCI-H358 | 0.136 |
| PC-3 [JPC-3] | 0.555 |
| LOU-NH91 | 0.528 |

Compound: CC(C)C[C@@H](C(=O)N[C@H](C(=O)OC1CCCC1)c1ccccc1)[C@H](O)C(=O)NO [Tosedostat] + COc1cccc2cc(-c3nc([C@H]4CC[C@H](C(=O)O)CC4)n4ncnc(N)c34)[nH]c12 [OSI-027] (partner 0.5 µM)
Experiment: as above
Conditions: first compound 0.02 µM
Method in brief: as §1

| Cell Line | relative viability |
| --- | --- |
| NCI-H322M | 0.606 |
| NCI-H1437 | 0.977 |
| PC-14 | 0.959 |
| CAL-12T | 0.9 |
| NCI-H1734 | 0.593 |
| EPLC-272H | 0.281 |
| NCI-H3122 | 1.15 |
| NCI-H2009 | 0.696 |
| NCI-H520 | 0.215 |
| NCI-H1651 | 0.747 |
| NCI-H1993 | 0.555 |
| NCI-H2228 | 0.728 |
| HCC-15 | 0.751 |

Source: the supplement of paper PMC10307832
